Test results reported in patent publication US9427433B2, “Methods and compositions for enhancing fertility and/or inhibiting pregnancy failure and restoring glucose tolerance” (Queen's University at Kingston, priority 2011, dated 2016).

What was measured:
Format in all cases: in vivo, mouse
[1] = test system: 60% high fat fed NZO and DIO mice; experiment: Glucose tolerance test after tacrolimus; conditions: all treated type 2 diabetic and obese mice; FIG. 16B
Protocol: Twenty NZO and DIO/B6 female mice were maintained on a high fat diet consisted of 60% kcal fat, 20% kcal protein and 20% kcal carbohydrate, with a total energy mass of 5.24 kcal/gm (D12492, Research Diets Inc.; […] Tacrolimus (Prograf (5 mg/ml), Astellas) was administered subcutaneously in a dose of 0.1 mg/kg q2d in 0.2 ml saline for three weeks to the obese and glucose intolerant NZO and DIO mice starting at the age of 10 weeks after which animals were mated to males of the same strain and pregnancy was dated from the morning of the positive detection of vaginal (copulation) plug. See FIG. 2. […] Briefly, basal glucose levels were measured for conscious mice individually caged in 1000 cc plastic mouse caging using a one-touch ultra glucose strips and meter (Acqui-check Aviva, Roche, Montreal, Canada) and approximately 30 microliters of blood obtained via tail venipuncture prior to fasting for six hours in cages equipped with hardwood bedding. Fasting blood glucose was recorded at the end of the six hours fasting period. […] Then after, blood glucose was recorded at 15, 30, 45, 60, 90 and 120 minutes respectively. For Si experiments blood glucose was determined only at 15 minutes. Glucose tolerance graphs were generated by blotting mean±standard error of the mean (SEM) of the recorded glucose data per mouse per minute collection time. […]

[2] = test system: NZO mice fed a high fat diet; experiment: Fasting serum glucose, fasting serum insulin and glucose tolerance, comparison of macrolides; conditions: vs vehicle
Protocol: Female mice were administered tacrolimus (0.1 mg/kg or 0.05 mg/kg, n=6/group), vehicle (n=10), pimecrolimus (0.1 mg/kg, n=6) or sirolimus (0.1 mg/kg, n=6) subcutaneously every other day for 3 weeks.
For the comparative evaluation of other macrolide drugs to tacrolimus, mice starting at 7 weeks of age were maintained on the high fat diet for a total of 13 weeks of study period. Mice were entered into the experiments when determined to be glucose intolerant as described above. Methods of drug administration and other experimental methods were as described above.
Glucose Tolerance Test (GTT): was performed according to standard protocol (Ayala et al 2010). Briefly, basal glucose levels were measured for conscious mice individually caged in 1000 cc plastic mouse caging using a one-touch ultra glucose strips and meter (Acqui-check Aviva, Roche, Montreal, Canada) and approximately 30 microliters of blood obtained via tail venipuncture prior to fasting for six hours in cages equipped with hardwood bedding. Fasting blood glucose was recorded at the end of the six hours fasting period. Mice were then tested for oral glucose tolerance (OGTT) or for insulin sensitivity (Si). For OGTT alert mice were then given 20% D-glucose (2 g/kg body weight) sterile syrup administered orally. For Si experiments mice were given 20% D-glucose (2 g/kg body weight) sterile syrup by intraperitoneal administration through a 1 ml D29 gage “½” insulin syringe (Fisher Scientific, Montreal, Canada). Then after, blood glucose was recorded at 15, 30, 45, 60, 90 and 120 minutes respectively. For Si experiments blood glucose was determined only at 15 minutes. Glucose tolerance graphs were generated by blotting mean±standard error of the mean (SEM) of the recorded glucose data per mouse per minute collection time. One way analysis of variance (ANOVA) followed by student t-test was performed to determine alpha values for statistical differences among mean blood glucose values across experimental mice groups.
Fasting immuno-reactive mouse insulin levels were quantitatively determined in citrated platelet-free plasma samples obtained from 6 hours-fasting mice using an Ultrasensitive mouse Insulin Eliza kit (#90080, Crystal chem., IL, USA) according to the manufacturer instructions. Briefly, platelet-free plasma were isolated from freshly obtained citrated whole blood samples of fasting mice and the provided insulin standards were incubated overnight on a shaking platform at 4 C^0 in a 96 wells plate coated with Guinea pig anti-insulin. Afterwards, unbound sample materials were thoroughly washed with the supplied wash buffers and the bound guinea pig anti-insulin/mouse insulin complex immobilized to the microplate wells were incubated with Horseradish peroxidase (HRP)-conjugated anti-insulin antibody for 40 minutes at room temperature with continuous agitation. Excess unbound HRP-conjugated anti-insulin antibodies were then washed excessively with wash buffers and the HRP-mediated color reaction was developed with the addition of 3,3′,5,5′ tetramethylbenzidine (TMB) substrate solution. The amount of insulin (ng/ml) present in the test samples were then measured via interpolation using the standard curve generated by plotting absorbance (at A^0450-A^0635) versus the corresponding concentration of a wide range (0.1-12.8 ng/ml) of mouse insulin standards according to the provider's instructions. Graphic representation of differences in mean±sem of plasma insulin among different groups of mice were blotted using Prism5 (La Jolla, Calif., USA) software and statistically significant differences (at 95% confidence) were calculated for the different test groups of mice using one way ANOVA followed by Bonferroni modified student t-test comparing differences between individual experimental groups.

[3] = test system: diabetic and obese mice fed with 60% fat; experiment: Serum lipid profile; conditions: 60% fat for 12 weeks; day 4.5 post-coitum
Excerpt: FIGS. 22A to 22H show results of tacrolimus restoring normal lipid profile in all treated diabetic and obese mice fed with 60% fat for 12 weeks. Normal serum levels of Triglycerides (FIG. 22A and FIG. 22B), Total Cholesterol (FIG. 22C and FIG. 22D), High-density Lipoprotein (HDL) Cholesterol (FIG. 22E and FIG. 22F) and lipid Ratio representing the overall lipid profile (FIG. 22G and FIG. 22H) were obtained after the administration of tacrolimus to the diabetic and obese mice despite their continued high fat calorie intake. Blood samples were taken at day 4.5 post-coitum and values on the Y-axis are plotted as power of 10.

[4] = 0.1 mg/kg s.c. every other day for 3 weeks

Structure (SMILES): C=CC[C@@H]1/C=C(\C)C[C@H](C)C[C@H](OC)[C@H]2O[C@@](O)(C(=O)C(=O)N3CCCC[C@H]3C(=O)O[C@H](/C(C)=C/[C@@H]3CC[C@@H](O)[C@H](OC)C3)[C@H](C)[C@@H](O)CC1=O)[C@H](C)C[C@@H]2OC [tacrolimus]
- glucose tolerance [1]: restored normal glucose tolerance
- fasting basal serum glucose [2, 4]: normalized fasting basal serum glucose concentrations
- fasting basal serum insulin [2, 4]: significantly reduced fasting basal serum insulin concentrations
- insulin secretion in response to a hyperglycemic challenge ([2]; tacrolimus 0.1 or 0.05 mg/kg, pimecrolimus 0.1 mg/kg, sirolimus 0.1 mg/kg s.c. every other day for 3 weeks): significantly improved insulin secretion
- lipid profile (triglycerides, total cholesterol, HDL cholesterol, lipid ratio) [3]: restored normal lipid profile
